Reference: patent US20220227761A1, “OXOACRIDINYL ACETIC ACID DERIVATIVES AND METHODS OF USE” (STINGTHERA, INC., priority 2019, published 2022)
“And” between values parts separate entries of the source, which are not always exact repeats. Identical values can stand only once.

Tests used:
hSTING-R232 (aa140-379) = hSTING-R232 (aa140-379) (Homo sapiens, UniProt Q86WV6, H232R); experiment: STING differential scanning fluorimetry (DSF) assay, hSTING WT; conditions: shift in melting temperature apo vs ligand-bound
Description: A STING DSF assay was performed to determine protein thermostability shift in response to small molecule ligand binding. A STING thermnostability shift assay based on differential scanning fluorimetry was used to measure (1) the net shift in melting temperature (ΔTm) between the apo and ligand-bound states of the STING protein and (2) the concentration of the thermal denaturation transition (EC50) as a surrogate measure of binding affinity (Kd). […] Protein in assay buffer was transferred to a 384 well plate and incubated with the hydrophobic fluorescent dye SYBR Orange. A temperature ramp was applied to the plate and the resulting dye fluorescence was plotted as a function of temperature. The first derivative of this function (dF/dT) was then used to extrapolate the melting temperature of the protein at various concentrations of compound and determine the thermal denaturation profile of a protein/compound complex.
5 μM purified Target STING Protein • 3. 8 μM Sypro Orange Dye • 4. Buffer: 100 mM NaCl, 30 mM HEPES, pH 7.5 • 5. Thermal Ramp: 0.5° C./min • 6. <1% DMSO • 7. 11 point, 2 fold dilution, duplicate, 300 μM high concentrations • 8.

[1] = tested on: STING protein; IRF/IFN signaling in THP-1 R232 cells; experiment: Cell based reporter assay, THP-1 R232 IRF-luc; conditions: Homo sapiens, THP1-dual-KI R232 cells, IRF luciferase reporter; for Emax: maximum measured activity, read-out: THP 1-dual-KI R232_IRF(Luciferase)_Activity Maximum measured (%); for IC50: read-out: THP 1-dual-KI R232_IRF(Luciferase) IC50
Description: Cell reporter assays were developed to measure the ability of compounds of the application to activate the STING protein and activate both IRF/IFN and the NFkB signaling pathways in the myeloid derived cell line THP-1, which is commercially available from several suppliers. Briefly, THP-1 monocytes were transfected and selected for stable integration of 2 reporter constructs. Clones incorporating stably integrated vectors were further selected by antibiotic resistance to blastocidin and zeocin. The reporter constructs included: (1) firefly luciferase reporter gene under the control of an ISG54 promoter fused to five interferon (IFN)-stimulated response elements to measure IRF transcription factor binding activity and (2) secreted embryonic alkaline phosphatase reporter gene under transcription control of an IFN-beta minimal promoter fused to 5 copies of the NFkB consensus transcriptional response element and 3 copies of the c-Rel binding site.
The resulting THP-1 cell line was further modified to incorporate 3 amino acid point mutations (H71R A230G Q293R). This modification of the native TMEM173 gene in THP-1 cells (HAQ) was designed to produce a cell reporter that expressed the most common allelic variant in the human population (THP-1 R232, available from InvivoGen). Alternatively, the TMEM173 gene was knocked out to provide a congenic control to counter-screen for compound activation that was independent of the STING protein (THP-1 STING KO).
Once cell lines were established, reporter assay protocols were developed and optimized to screen small molecule compounds for agonist activity. Assay optimization for efficacy and Z′ value included titration of the following parameters:
• 1. Cell pre-activation with PMA • 2. Cell seeding density • 3. DMSO tolerance • 4. Media selection • 5. FBS concentration • 6. Incubation time • 7. Co-Assessment of cell viability by CTG assay • 8. Appropriate HPE and ZPE controls • 9. Dose Response Titration
• 1. No pre-activation with PMA • 2. 5×10^4 cells/well in 96 well plate format • 3. <0.5% DMSO • 4. RPMI 1640+2.5 mg/ml glucose • 5. 10% FBS • 6. 14-18 hr incubation • 7. Cell Titer Glo reagent (Promega) following supernatant removal • 8. […] 8 point, 2 fold, duplicate starting at 150 μM

[2] = biological target: human STING protein (140-379), WT (Homo sapiens, UniProt Q86WV6, H232R); experiment: Radiometric filtration binding competition assay (FBA), hSTING-WT; conditions: WT-hSWAT IC50 (μM), WT_FBA_HIS-SUMO-hSWAT; wild-type human STING; competition with [H3] 2′3′cGAMP
human STING protein (140-379), WT, sequence (Q86WV6 140-379 H232R): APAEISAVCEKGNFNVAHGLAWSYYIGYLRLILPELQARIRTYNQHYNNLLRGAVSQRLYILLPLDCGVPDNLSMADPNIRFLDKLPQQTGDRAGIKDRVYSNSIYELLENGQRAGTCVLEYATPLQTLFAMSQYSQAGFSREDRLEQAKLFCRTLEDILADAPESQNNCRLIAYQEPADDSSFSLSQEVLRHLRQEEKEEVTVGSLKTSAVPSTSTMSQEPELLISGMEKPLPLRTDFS

hSTING-R232 (aa140-379), sequence (Q86WV6 140-379 H232R): as above

| SMILES | WT_DSF_hSWAT Tm Shift (° C.) (hSTING-R232 (aa140-379)) | IC50 [1] [µM] | IC50 [2] | Emax [1] [%] |
| --- | --- | --- | --- | --- |
| CN(C)c1c(Cl)ccc2c(=O)c3ccc(C4=CCOC4)cc3n(CC(=O)O)c12 [Compound 16] | D (“D” >7° C.) | < 50 | < 20 µM | > 50 |
| CN(C)c1c(Cl)ccc2c(=O)c3ccc(-c4cc[nH]c4)cc3n(CC(=O)O)c12 [Compound 14] | D (“D” >7° C.) | < 50 | < 20 µM | > 50 |
| CC/C=C(\CC)c1ccc2c(=O)c3ccc(Cl)c(OC)c3n(CC(=O)O)c2c1 [Compound 18] | D (“D” >7° C.) | < 50 | 20 to 100 µM | > 50 |
| Cc1cc2c(cc1Br)c(=O)c1ccc(Cl)c(N(C)C)c1n2CC(=O)O [Compound 34] | C (“C” = 2-7° C.) | < 50 | 20 to 100 µM | 5 to 25 |
| CN(C)c1c(Cl)ccc2c(=O)c3ccc(-c4ccccc4)cc3n(CC(=O)O)c12 [Compound 11] | D (“D” >7° C.) | < 50 | < 20 µM | > 50 |
| CN(C)c1c(Cl)ccc2c(=O)c3ccc(-c4ccn(C(=O)OC(C)(C)C)c4)cc3n(CC(=O)O)c12 [Compound 17] | D (“D” >7° C.) | < 50 | < 20 µM | > 50 |
| CN(C)c1c(Cl)ccc2c(=O)c3ccc(-n4cccn4)cc3n(CC(=O)O)c12 [Compound 6] | D (“D” >7° C.) | < 50 | < 20 µM | > 50 |
| CN(C)c1c(Cl)ccc2c(=O)c3cc(Cl)c(Br)cc3n(CC(=O)O)c12 [Compound 3] | C (“C” = 2-7° C.) | < 50 | 20 to 100 µM | > 50 |
| Cc1ccc2c(c1)c(=O)c1ccc(Cl)c(N(C)C)c1n2CC(=O)O [Compound 31] | C (“C” = 2-7° C.) | 50 to 100 | 100 to 300 µM and 20 to 100 µM | > 50 |
| COc1cc2c(=O)c3ccc(Cl)c(N(C)C)c3n(CC(=O)O)c2cc1OC [Compound 1] | B (“B” = 0-2° C.) | > 150 | < 20 µM | 5 to 25 |
| CN(C)c1c(Cl)ccc2c(=O)c3ccc(-c4ccncc4)cc3n(CC(=O)O)c12 [Compound 8] | D (“D” >7° C.) | < 50 | < 20 µM | > 50 |
| Cc1ccc2c(=O)c3ccc(Cl)c(N(C)C)c3n(CC(=O)NS(=O)(=O)C3CC3)c2c1 [Compound 44] | D (“D” >7° C.) | – | 20 to 100 µM | – |
| Cc1ccc2c(=O)c3ccc(C(F)(F)F)c(N(C)C)c3n(CC(=O)O)c2c1 [Compound 26] | B (“B” = 0-2° C.) | – | > 300 µM | – |
| Cc1cc2c(cc1Cl)c(=O)c1ccc(Cl)c(N(C)C)c1n2CC(=O)O [Compound 33] | C (“C” = 2-7° C.) | < 50 | – | > 50 |
| COc1c(Cl)ccc2c(=O)c3ccc(C4=CCC(N5CCN(C)CC5)CC4)cc3n(CC(=O)O)c12 (stereo not drawn) [Compound 28] | C (“C” = 2-7° C.) | – | 20 to 100 µM | – |
| CN(C)c1c(Cl)ccc2c(=O)c3ccc(C(C)(C)C)cc3n(CC(=O)NS(=O)(=O)C3CC3)c12 [Compound 42] | D (“D” >7° C.) | – | < 20 µM | – |
| CCc1cccc2c(=O)c3ccc(C)cc3n(CC(=O)O)c12 [Compound 38] | B (“B” = 0-2° C.) | – | > 300 µM | – |
| COc1c(Cl)ccc2c(=O)c3ccc(C4=CCN(C(=O)OC(C)(C)C)C4)cc3n(CC(=O)O)c12 [Compound 41] | D (“D” >7° C.) | – | 20 to 100 µM | – |
| CN(C)c1c(Cl)ccc2c(=O)c3ccc(C(C)(C)C)cc3n(CC(=O)NC#N)c12 [Compound 43] | D (“D” >7° C.) | – | < 20 µM | – |
| CN(C)c1c(Cl)ccc2c(=O)c3ccc(-c4cnoc4)cc3n(CC(=O)O)c12 [Compound 13] | D (“D” >7° C.) | < 50 | – | > 50 |
| Cc1noc(C)c1-c1ccc2c(=O)c3ccc(Cl)c(N(C)C)c3n(CC(=O)O)c2c1 [Compound 12] | C (“C” = 2-7° C.) | – | 20 to 100 µM | – |
| COc1c(Cl)ccc2c(=O)c3ccc(C4CCC(N5CCN(C)CC5)CC4)cc3n(CC(=O)O)c12 (stereo not drawn) [Compound 27] | C (“C” = 2-7° C.) | – | 20 to 100 µM | – |
| COc1c(Cl)ccc2c(=O)c3ccc(C4=CCNC4)cc3n(CC(=O)O)c12 [Compound 40] | C (“C” = 2-7° C.) | – | > 300 µM | – |

Second part, led by results:

| WT_DSF_hSWAT Tm Shift (° C.) (hSTING-R232 (aa140-379)) | IC50 [1] [µM] | IC50 [2] | SMILES | Emax [1] [%] |
| --- | --- | --- | --- | --- |
| D (“D” >7° C.) | < 50 | < 20 µM | CN(C)c1c(Cl)ccc2c(=O)c3ccc(Nc4cccnc4)cc3n(CC(=O)O)c12 [Compound 80] | > 50 |
| D (“D” >7° C.) | < 50 | 20 to 100 µM | Cc1ccc2c(=O)c3ccc(Cl)c(N(C)C)c3n(CC(=O)NS(C)(=O)=O)c2c1 [Compound 55] | > 50 |
| D (“D” >7° C.) | < 50 | < 20 µM | CN(C)c1c(Cl)ccc2c(=O)c3ccc(C(C)(C)C#N)cc3n(CC(=O)O)c12 [Compound 52] | > 50 |
| D (“D” >7° C.) | – | 20 to 100 µM | CCc1c(Cl)ccc2c(=O)c3ccc(C)cc3n(CC(=O)O)c12 [Compound 48] | – |
| D (“D” >7° C.) | < 50 | < 20 µM | CN(C)c1c(Cl)ccc2c(=O)c3cc(Cl)c(Nc4c(F)cccc4F)cc3n(CC(=O)O)c12 [Compound 75] | > 50 |
| C (“C” = 2-7° C.) | < 50 | < 20 µM | CN(C)c1c(Cl)ccc2c(=O)c3ccc(-c4cnccn4)cc3n(CC(=O)O)c12 [Compound 70] | > 50 |
| B (“B” = 0-2° C.) | > 150 | 20 to 100 µM | O=C(O)Cn1c2ccccc2c(=O)c2ccc(Cl)c(O)c21 [Compound 63] | < 5 |
| D (“D” >7° C.) | < 50 | < 20 µM | CN(C)c1c(Cl)ccc2c(=O)c3ccc(-c4cc[nH]c(=O)c4)cc3n(CC(=O)O)c12 [Compound 69] | > 50 |
| – | < 50 | < 20 µM | CN(C)c1c(Cl)ccc2c(=O)c3ccc(C4(C)CC4)cc3n(CC(=O)O)c12 [Compound 85] | > 50 |
| D (“D” >7° C.) | – | 20 to 100 µM | CN(C)c1c(Cl)ccc2c(=O)c3ccc(-c4ccco4)cc3n(CC(=O)O)c12 [Compound 50] | – |
| C (“C” = 2-7° C.) | – | 100 to 300 µM | COc1c(Cl)ccc2c(=O)c3ccc(Br)cc3n(CC(=O)O)c12 [Compound 66] | – |
| C (“C” = 2-7° C.) | < 50 | – | CCc1cc2c(cc1Cl)c(=O)c1ccc(Cl)c(N(C)C)c1n2CC(=O)O [Compound 93] | > 50 |
| C (“C” = 2-7° C.) | – | 20 to 100 µM | Cc1ccc2c(=O)c3ccc(Cl)c(N(C)C)c3n(CC(=O)NC#N)c2c1 [Compound 45] | – |
| D (“D” >7° C.) | – | 20 to 100 µM | C=Cc1c(Cl)ccc2c(=O)c3ccc(C)cc3n(CC(=O)O)c12 [Compound 49] | – |
